Bounds are passed on as bounds.

T1 sequence (Q13535 whole entry): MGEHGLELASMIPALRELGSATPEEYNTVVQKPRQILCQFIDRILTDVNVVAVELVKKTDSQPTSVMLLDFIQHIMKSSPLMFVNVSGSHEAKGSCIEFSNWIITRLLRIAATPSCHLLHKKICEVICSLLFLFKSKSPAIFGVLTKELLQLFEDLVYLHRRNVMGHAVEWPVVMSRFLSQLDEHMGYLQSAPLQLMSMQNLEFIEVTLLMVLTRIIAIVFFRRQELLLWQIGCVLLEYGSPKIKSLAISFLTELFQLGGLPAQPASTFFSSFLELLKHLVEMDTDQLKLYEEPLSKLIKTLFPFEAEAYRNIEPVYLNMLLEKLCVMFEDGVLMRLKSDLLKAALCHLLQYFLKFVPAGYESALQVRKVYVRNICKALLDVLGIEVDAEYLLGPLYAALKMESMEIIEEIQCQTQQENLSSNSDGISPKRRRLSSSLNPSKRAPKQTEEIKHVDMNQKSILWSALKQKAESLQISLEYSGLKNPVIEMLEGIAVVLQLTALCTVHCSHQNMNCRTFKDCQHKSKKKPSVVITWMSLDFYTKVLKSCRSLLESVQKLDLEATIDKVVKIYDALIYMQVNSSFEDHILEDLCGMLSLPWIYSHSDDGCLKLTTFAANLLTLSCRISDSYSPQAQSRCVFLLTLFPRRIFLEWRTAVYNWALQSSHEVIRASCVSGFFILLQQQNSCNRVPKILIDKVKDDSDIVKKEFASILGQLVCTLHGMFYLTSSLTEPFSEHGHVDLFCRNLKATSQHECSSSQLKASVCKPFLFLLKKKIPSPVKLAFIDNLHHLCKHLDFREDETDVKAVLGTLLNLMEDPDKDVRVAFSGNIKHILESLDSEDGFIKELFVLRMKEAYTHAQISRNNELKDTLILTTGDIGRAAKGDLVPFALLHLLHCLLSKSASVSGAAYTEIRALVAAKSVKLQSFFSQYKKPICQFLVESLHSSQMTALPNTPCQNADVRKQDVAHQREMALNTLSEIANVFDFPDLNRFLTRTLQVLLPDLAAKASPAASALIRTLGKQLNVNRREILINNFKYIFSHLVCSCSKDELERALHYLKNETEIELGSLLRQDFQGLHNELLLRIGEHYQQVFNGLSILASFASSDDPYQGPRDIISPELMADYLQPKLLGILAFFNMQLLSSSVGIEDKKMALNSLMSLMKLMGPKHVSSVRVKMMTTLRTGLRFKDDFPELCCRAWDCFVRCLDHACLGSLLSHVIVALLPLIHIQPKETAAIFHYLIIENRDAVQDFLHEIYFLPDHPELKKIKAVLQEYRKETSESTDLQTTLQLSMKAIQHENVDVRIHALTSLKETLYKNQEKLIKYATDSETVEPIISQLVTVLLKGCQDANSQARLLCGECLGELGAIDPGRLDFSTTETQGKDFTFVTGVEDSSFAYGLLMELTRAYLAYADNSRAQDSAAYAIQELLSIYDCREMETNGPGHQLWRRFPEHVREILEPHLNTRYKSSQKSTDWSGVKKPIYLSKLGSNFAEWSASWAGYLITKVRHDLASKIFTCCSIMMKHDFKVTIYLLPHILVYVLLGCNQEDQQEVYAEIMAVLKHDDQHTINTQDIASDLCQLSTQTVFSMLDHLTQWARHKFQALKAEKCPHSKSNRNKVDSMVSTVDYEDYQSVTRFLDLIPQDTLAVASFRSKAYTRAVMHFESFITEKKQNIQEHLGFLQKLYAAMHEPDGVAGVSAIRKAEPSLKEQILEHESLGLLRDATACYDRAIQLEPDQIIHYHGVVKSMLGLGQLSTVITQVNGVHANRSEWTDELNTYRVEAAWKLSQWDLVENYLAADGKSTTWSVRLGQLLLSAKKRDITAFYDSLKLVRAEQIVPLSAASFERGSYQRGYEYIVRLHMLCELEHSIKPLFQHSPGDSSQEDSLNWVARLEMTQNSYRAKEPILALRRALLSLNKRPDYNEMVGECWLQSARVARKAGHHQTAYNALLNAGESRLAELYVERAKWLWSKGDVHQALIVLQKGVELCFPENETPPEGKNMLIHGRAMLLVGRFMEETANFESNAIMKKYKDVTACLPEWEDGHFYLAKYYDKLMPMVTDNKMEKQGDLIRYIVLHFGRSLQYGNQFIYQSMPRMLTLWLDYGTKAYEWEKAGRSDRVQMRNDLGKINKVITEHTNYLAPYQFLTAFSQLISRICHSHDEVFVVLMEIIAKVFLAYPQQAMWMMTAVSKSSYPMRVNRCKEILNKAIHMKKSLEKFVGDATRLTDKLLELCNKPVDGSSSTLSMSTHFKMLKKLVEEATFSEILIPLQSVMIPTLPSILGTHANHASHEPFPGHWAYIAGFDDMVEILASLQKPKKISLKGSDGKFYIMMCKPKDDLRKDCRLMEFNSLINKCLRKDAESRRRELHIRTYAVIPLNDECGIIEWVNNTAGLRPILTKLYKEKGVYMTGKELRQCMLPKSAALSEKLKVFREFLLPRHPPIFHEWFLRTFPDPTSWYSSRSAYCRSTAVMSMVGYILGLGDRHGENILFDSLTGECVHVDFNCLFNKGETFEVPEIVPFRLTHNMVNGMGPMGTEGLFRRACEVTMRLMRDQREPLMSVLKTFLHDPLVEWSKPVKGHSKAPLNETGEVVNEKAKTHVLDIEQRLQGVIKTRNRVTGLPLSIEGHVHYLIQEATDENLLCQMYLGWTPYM

The experiment concerns the target T1, full-length ATR (Homo sapiens, UniProt Q13535).
T1 construct: Assays were carried out at 25° C. in the presence of 5 nM full-length ATR
In words: ATR Inhibition Assay (radioactive-phosphate incorporation). It counts as biochemical. To be noted: Ki(app); 5 nM full-length ATR, 10 μM ATP, 800 μM target peptide, 25° C. As for the experimental part:
Compounds were screened for their ability to inhibit ATR kinase using a radioactive-phosphate incorporation assay. Assays were carried out in a mixture of 50 mM Tris/HCl (pH 7.5), 10 mM MgCl2 and 1 mM DTT. Final substrate concentrations were 10 μM [γ-33P]ATP (3mCi 33P ATP/mmol ATP, Perkin Elmer) and 800 μM target peptide (ASELPASQPQPFSAKKK) (SEQ. ID. NO: 1).
Assays were carried out at 25° C. in the presence of 5 nM full-length ATR. An assay stock buffer solution was prepared containing all of the reagents listed above, with the exception of ATP and the test compound of interest. 13.5 μL of the stock solution was placed in a 96 well plate followed by addition of 2 μL of DMSO stock containing serial dilutions of the test compound (typically starting from a final concentration of 15 μM with 3-fold serial dilutions) in duplicate (final DMSO concentration 7%). The plate was pre-incubated for 10 minutes at 25° C. and the reaction initiated by addition of 15 μL [γ-33P]ATP (final concentration 10 μM).
The reaction was stopped after […] by the addition of 30 μL 0.1M phosphoric acid containing 2 mM ATP. A multiscreen phosphocellulose filter 96-well plate (Millipore, Cat no. MAPHN0B50) was pretreated with 100 μL 0.2M phosphoric acid prior to the addition of 45 μL of the stopped assay mixture. The plate was washed with 5×200 μL 0.2M phosphoric acid. After drying, 100 μL Optiphase ‘SuperMix’ liquid scintillation cocktail (Perkin Elmer) was added to the well prior to scintillation counting (1450 Microbeta Liquid Scintillation Counter, Wallac).
After removing mean background values for all of the data points, Ki(app) data were calculated from non-linear regression analysis of the initial rate data using the Prism software package (GraphPad Prism version 3.0cx for Macintosh, GraphPad Software, San Diego Calif., USA).
Below is a chart showing the ATR Inhibition Ki values of compounds of the disclosure.
On to `CC(C)S(=O)(=O)c1ccc(-c2cnc3[nH]cc(N4Cc5cc(N(C)C6CCNCC6)ccc5C4=O)c3n2)cc1` [Compound I-31, 2-(2-(4-(isopropylsulfonyl)phenyl)-5H-pyrrolo[2,3-b]pyrazin-7-yl)-5-(methyl(piperidin-4-yl)amino)isoindolin-1-one], for which the Ki is at most 50 nM.
The figure for `CC(C)S(=O)(=O)c1ccc(-c2cnc3[nH]cc(N4Cc5cc(NCCN6CCOCC6)ccc5C4=O)c3n2)cc1` [Compound I-32, 2-(2-(4-(isopropylsulfonyl)phenyl)-5H-pyrrolo[2,3-b]pyrazin-7-yl)-5-((2-morpholinoethyl)amino)isoindolin-1-one] is at most 50 nM; for `CC(C)S(=O)(=O)c1ccc(-c2cnc3[nH]cc(N4Cc5cc(N6CCC(CN)CC6)ccc5C4=O)c3n2)cc1` [Compound I-33, 5-(4-(aminomethyl)piperidin-1-yl)-2-(2-(4-(isopropylsulfonyl)phenyl)-5H-pyrrolo[2,3-b]pyrazin-7-yl)isoindolin-1-one] it is 50 to 100 nM.
With `CC(C)S(=O)(=O)c1ccc(-c2cnc3[nH]cc(N4Cc5cc(NCCN)ccc5C4=O)c3n2)cc1` [Compound I-34, 5-((2-aminoethyl)amino)-2-(2-(4-(isopropylsulfonyl)phenyl)-5H-pyrrolo[2,3-b]pyrazin-7-yl)isoindolin-1-one], the Ki is at most 50 nM.
On to `CC(C)S(=O)(=O)c1ccc(-c2cnc3[nH]cc(N4Cc5cc(N6CC[C@@H](CN)C6)ccc5C4=O)c3n2)cc1` [Compound I-35, (S)-5-(3-(aminomethyl)pyrrolidin-1-yl)-2-(2-(4-(isopropylsulfonyl)phenyl)-5H-pyrrolo[2,3-b]pyrazin-7-yl)isoindolin-1-one], for which the Ki was at most 50 nM.
`CC(C)S(=O)(=O)c1ccc(-c2cnc3[nH]cc(N4Cc5cc(N(C)CCCN(C)C)ccc5C4=O)c3n2)cc1` [Compound I-36, 5-((3-(dimethylamino)propyl)(methyl)amino)-2-(2-(4-(isopropylsulfonyl)phenyl)-5H-pyrrolo[2,3-b]pyrazin-7-yl)isoindolin-1-one]: the Ki was at most 50 nM.
For `CC(C)S(=O)(=O)c1ccc(-c2cnc3[nH]cc(N4Cc5cc(N6CCC(N(C)C)CC6)ccc5C4=O)c3n2)cc1` [Compound I-37, 5-(4-(dimethylamino)piperidin-1-yl)-2-(2-(4-(isopropylsulfonyl)phenyl)-5H-pyrrolo[2,3-b]pyrazin-7-yl)isoindolin-1-one], the Ki was at most 50 nM.
For `CC(C)S(=O)(=O)c1ccc(-c2cnc3[nH]cc(N4Cc5cc(N6CCCNCC6)ccc5C4=O)c3n2)cc1` [Compound I-38, 5-(1,4-diazepan-1-yl)-2-(2-(4-(isopropylsulfonyl)phenyl)-5H-pyrrolo[2,3-b]pyrazin-7-yl)isoindolin-1-one] the value was at most 50 nM.
For the molecule `CC(C)S(=O)(=O)c1ccc(-c2cnc3[nH]cc(N4Cc5cc(NC6CNC6)ccc5C4=O)c3n2)cc1` [Compound I-39, 5-(azetidin-3-ylamino)-2-(2-(4-(isopropylsulfonyl)phenyl)-5H-pyrrolo[2,3-b]pyrazin-7-yl)isoindolin-1-one], the Ki is at most 50 nM.
For `CC(C)S(=O)(=O)c1ccc(-c2cnc3[nH]cc(N4Cc5cc(NCC6CCCNC6)ccc5C4=O)c3n2)cc1` (stereo not drawn) [Compound I-40, 2-(2-(4-(isopropylsulfonyl)phenyl)-5H-pyrrolo[2,3-b]pyrazin-7-yl)-5-((piperidin-3-ylmethyl)amino)isoindolin-1-one] the value was at most 50 nM; for `CC(C)S(=O)(=O)c1ccc(-c2cnc3[nH]cc(N4Cc5cc(N6CC[C@H](N)C6)ccc5C4=O)c3n2)cc1` [Compound I-41, (S)-5-(3-aminopyrrolidin-1-yl)-2-(2-(4-(isopropylsulfonyl)phenyl)-5H-pyrrolo[2,3-b]pyrazin-7-yl)isoindolin-1-one], at most 50 nM.
Take `CC(C)S(=O)(=O)c1ccc(-c2cnc3[nH]cc(N4Cc5cc(N6CC[C@@H](N)C6)ccc5C4=O)c3n2)cc1` [Compound I-42, (R)-5-(3-aminopyrrolidin-1-yl)-2-(2-(4-(isopropylsulfonyl)phenyl)-5H-pyrrolo[2,3-b]pyrazin-7-yl)isoindolin-1-one]: the Ki is at most 50 nM.
`CC(C)S(=O)(=O)c1ccc(-c2cnc3[nH]cc(N4Cc5cc(-c6ccn[nH]6)ccc5C4=O)c3n2)cc1` [Compound I-43, 2-(2-(4-(isopropylsulfonyl)phenyl)-5H-pyrrolo[2,3-b]pyrazin-7-yl)-5-(1H-pyrazol-5-yl)isoindolin-1-one]: the Ki is at most 50 nM.
In the case of `CNc1cccc2c1C(=O)N(c1c[nH]c3ncc(-c4ccc(S(=O)(=O)C(C)C)cc4)nc13)C2` [Compound I-44, 2-(2-(4-(isopropylsulfonyl)phenyl)-5H-pyrrolo[2,3-b]pyrazin-7-yl)-7-(methylamino)isoindolin-1-one], the Ki lay within 50 to 100 nM.
For the molecule `CC(C)S(=O)(=O)c1ccc(-c2cnc3[nH]cc(N4Cc5cccc(N(C)C)c5C4=O)c3n2)cc1` [Compound I-45, 7-(dimethylamino)-2-(2-(4-(isopropylsulfonyl)phenyl)-5H-pyrrolo[2,3-b]pyrazin-7-yl)isoindolin-1-one], the Ki was at most 50 nM.
As for `CC(C)S(=O)(=O)c1ccc(-c2cnc3[nH]cc(N4Cc5ccc(OCCN(C)C)cc5C4=O)c3n2)cc1` [Compound I-46, 6-(2-(dimethylamino)ethoxy)-2-(2-(4-(isopropylsulfonyl)phenyl)-5H-pyrrolo[2,3-b]pyrazin-7-yl)isoindolin-1-one], the Ki was at most 50 nM.
In the case of `CC(C)S(=O)(=O)c1ccc(-c2cnc3[nH]cc(N4Cc5cc(OCCN(C)C)ccc5C4=O)c3n2)cc1` [Compound I-47, 5-(2-(dimethylamino)ethoxy)-2-(2-(4-(isopropylsulfonyl)phenyl)-5H-pyrrolo[2,3-b]pyrazin-7-yl)isoindolin-1-one], the Ki is at most 50 nM.
For the molecule `CC(C)S(=O)(=O)c1ccc(-c2cnc3[nH]cc(N4C(=O)c5ccccc5C4CCO)c3n2)cc1` (stereo not drawn) [Compound I-48, 3-(2-hydroxyethyl)-2-(2-(4-(isopropylsulfonyl)phenyl)-5H-pyrrolo[2,3-b]pyrazin-7-yl)isoindolin-1-one], the Ki is at most 50 nM.

Values taken from patent US9309250B2, “Substituted pyrrolo[2,3-b]pyrazines as ATR kinase inhibitors” (Vertex Pharmaceuticals Incorporated, priority 2011, dated 2016).
